Reference: patent publication US20050171342A1, “Conjugates of biologically active compounds, methods for their preparation and use, formulation and pharmaceutical applications thereof” (priority 2002, published 2005)
Where two headings read alike, the source gives them in different places.

Key:
lymphocytes = test: Proliferation assay (BrdU incorporation, phytohemagglutanin-stimulated lymphocytes); format: cell-based, mammalian; conditions: for IC50: Lymphocyte; for Ratio (2 h:72 h): ratio of IC50 at 2 h to IC50 at 72 h, lower = better uptake and drug release
Text: Assay to determine the in vitro rate of, for example, lymphocyte proliferation. Lymphocytes are purified out of ant coagulated (CPDA, citrate or heparin) mammalian blood using the Lymphoprep™ system (supplier). Purified cells are counted using a hemocytometer following Trypan Blue staining, and a cell concentration of 1×10^6 cells/ml established in RPMi 1640 medium with 10% FCS and antibiotics as required (all from Biochrome). Following the addition of a cell proliferation stimulant, for example phytohemagglutanin (Sigma) at, for example an end concentration of 5 μg/ml, the cells are incubated with different concentrations of the to be investigated compound in 100 μl end volume in a 96-well microtiter plate in an incubator (37° C., 5% CO2, 95% humidity) for 72 h. Cell proliferation is quantified following BrdU incorporation for 16 h by ELISA and subsequent colorimetric development (Cell Proliferation ELISA BrdU (colorimetric) kit from Roche Diagnostics). The IC50 (μM) values are then calculated, and used to compare compound efficacy. To determine the influence of the T-L-C modification on in vitro cellular drug uptake and pharmacology, the above assay is additionally modified and an additional “wash” step included. In addition to running the assay for 72 h with the compounds to be tested, the assay is also run for just 2 h, then compound is washed away in three serial washing steps using 200 μl of medium at each step, and the cells subsequently incubated for a further 70 h. […] The lower the number, the better the uptake and drug release from the T-L-C in the cells (see results in Table 4 for examples), and improvement over mycophenolic acid.

[1] = test system: white blood cells (immune cells: neutrophils, monocytes, lymphocytes) versus erythrocytes; test: Immune cell partition / concentrative uptake into white blood cells (immune selectivity ratio); format: in vitro ADME, mammalian
E. coli (DH5α) = test: Testing of antibiotic activity (TC50, antibiotic dilution assay, turbidity); format: cell-based; conditions: concentration that inhibits 50% of the growth
Procedure: The TC50 or MIC procedure for antibiotic sensitivity testing involves an antibiotic dilution assay, which can be performed in microtitre plates. A series of twofold dilutions of each antibiotic are made in the wells, and then all wells are inoculated with a standard amount of the same test organism. After incubation, growth in the presence of the various antibiotics is observed by measuring turbidity.
Bacteria: B. pumilus and E. coli (DH5α)
Bacterial cultures are initiated from the plates for 2 to 3 weeks. After this time period bacteria are streaked out on new plates from the backups strored at −80° C. Due to the lack of resistance of the bacteria, new cultures are not to be initiated from an old plate or any liquid cultures derived from old plates. • Growth medium (GM)(per liter): 10 g Bacto-tryptone, 5 g Bacto-yeast extract, 6 g HEPES (25 mM), 5.4 g NaCl, pH 7.3 • Compound stocks 10 or 100 mM in DMSO stored at −20° C. Procedure • 1. Grow B. pumilus from an LB agar plate in a flask (max. 10% volume) up to about 50 ml in growth medium (GM) • 2. Dilute overnight suspension 1:10 in GM • 3. Determine OD600 of diluted bacterial suspension • 4. Dilute bacterial suspension in GM to an OD600 of 0.03-0.04. (6 ml/plate) • 5. Add 200 μl GM to the outer wells (Row A, Row H, Column 1, Column 12) • 6. Add 100 μl GM to each well starting from C2, row 3. • 7. Controls: Wells B2-B4 growth control. Wells B6-B8 blank. Row C growth inhibition control. • 7.1. To wells B2-B4 add: […], 4 μl DMSO, and 100 μl bacterial suspension adjusted to an OD600 of 0.03-0.04. • 7.2. To wells B6-B8 add: 196 μl GM and 4 μl DMSO • 7.3. Dilute a 10 mM COMPOUND 43 (positive control) stock to 800 μM (120 μl/plate) in GM. Add 100 μl of 800 μM COMPOUND 43 solution to well C2. • 8. Samples • 8.1. Dilute the 10 or 100 mM stock solutions to 800 μM (250 μl/plate) in GM. • 8.2. Add 100 μl of 800 μM sample in duplicates to wells D2/E2 resp. F2/G2. • 8.3. 2-fold serial dilution of all samples and Azithromycin • 8.3.1. […]
11. Determine OD600 on plate reader.

HeLa or JURKAT = test: Cytotoxicity assay (Alamar Blue) with guanosine rescue, cell-based IMPDH assay
Procedure: HeLa cells (DSMZ, ACC 57) and Jurkat cells (DSMZ, ACC 282) in exponential growth phase are exposed for 3 days to test compounds. The number of surviving cells is then determined by the Alamar Blue assay (Serotec Inc.). This assay incorporates a fluorometric growth indicator based on detection of metabolic activity. Specifically, the system incorporates an oxidation-reduction indicator that fluoresces in response to chemical reduction of the growth medium resulting from cell growth. As cells grow in culture, innate metabolic activity results in a chemical reduction of the immediate surrounding environment. Continued growth maintains a reduced environment while inhibition of growth maintains an oxidized environment. […] Fluorescence is monitored at 560 nm (Exc.) and 590 nm Em.
HeLa cells (1×10^3) or JURKAT cells (1×10^3) are plated in 100 μl MEM medium (with Earle's salt; Biochrom KG) containing 10% FBS, 2 mM L-glutamine, and non-essential animo acids in 96-well plates and incubated at 37° C. and 5% CO2 atmosphere. […] The fluorescence is then measured as described above and the LD50 is determined based on a sigmoidal dose response regression. […] Any toxicity still detected can then be ascribed either to other biological effects of the of T-L-C conjugate of mycophenolic acid, or is due to the very high intracellular concentration of mycophenolic acid, following concentrative uptake into the cell.

[2] = read-out: IC50 (μM) at 2 h, 2 h incubation, compound washed away, further 70 h incubation
[3] = 72 h incubation with compound, read-out: IC50 (μM) at 72 h

Compound | IC50 (lymphocytes; [2]) [µM] | IC50 (lymphocytes; [3]) [µM] | Ratio (2 h:72 h) (lymphocytes) | also measured
CC[C@H]1OC(=O)[C@H](C)C(=O)[C@H](C)[C@@H](O[C@@H]2O[C@H](C)C[C@H](N(C)C)[C@H]2OC(=O)CC/C(C)=C/Cc2c(O)c3c(c(C)c2OC)COC3=O)[C@](C)(O)C[C@@H](C)CN(C)[C@H](C)[C@@H](O)[C@]1(C)O [Compound 79] | 3.16 | 1.2 | 2.63 | 
COc1cc(C)c(/C(=C\C(C)=O)CC(N)C(=O)O)cc1OC (stereo not shown) [Compound 4] |  |  |  | uptake (speed) ([1]; uptake into immune cells, images during course of uptake): rapid
CC[C@H]1OC(=O)[C@H](C)C(=O)[C@H](C)[C@@H](O[C@@H]2O[C@H](C)CC(N(C)C)[C@H]2O)[C@](C)(O)C[C@@H](C)CN(C)[C@H](C)[C@@H](O)[C@]1(C)O (stereo partly shown) [Compound 40] |  |  |  | TC50 in E. coli (E. coli (DH5α)): >50000 nM
COc1c(C)c2c(c(O)c1C/C=C(\C)CCC(=O)OC(COCCCCOCC(CN1CCOCC1)OC(=O)CC/C(C)=C/Cc1c(O)c3c(c(C)c1OC)COC3=O)CN1CCOCC1)C(=O)OC2 (stereo not shown) [Compound 81] | 1.78 | 1.12 | 1.6 | 
CC[C@H]1OC(=O)[C@H](C)[C@@H](O[C@H]2C[C@@](C)(OC)[C@@H](O)[C@H](C)O2)[C@H](C)[C@@H](O[C@@H]2O[C@H](C)CC(N(C)C(=O)CN(C)CCO)[C@H]2O)[C@](C)(O)C[C@@H](C)CN(C)[C@H](C)[C@@H](O)[C@]1(C)O (stereo partly shown) [Compound 45] |  |  |  | TC50 in E. coli (E. coli (DH5α)): >50000 nM
COc1c(C)c2c(c(O)c1C/C=C(\C)CCC(=O)O)C(=O)OC2 [Mycophenolic acid, reference compound] | 2.5 | 0.54 | 4.63 | effect in the presence of guanosine (HeLa or JURKAT; 50 μM guanosine): completely removed; IC50 (HeLa or JURKAT; normal culture conditions, HeLa or JURKAT): < 2000 nM
CC[C@H]1OC(=O)[C@H](C)[C@@H](O)[C@H](C)[C@@H](O[C@@H]2O[C@H](C)C[C@@H](N(C)CCOC(=O)CC/C(C)=C/Cc3c(O)c4c(c(C)c3OC)COC4=O)[C@@H]2N(C)C)[C@](C)(O)C[C@@H](C)CN(C)[C@H](C)[C@@H](O)[C@]1(C)O [Compound 74] | 3.2 | 2.2 | 1.45 | 
COc1c(C)c2c(c(O)c1C/C=C(\C)CCC(=O)OCCN1CCOCC1)C(=O)OC2 [Mycophenolate mofetil, reference compound] | 1.5 | 0.33 | 4.5 | 
CC[C@H]1OC(=O)[C@H](C)[C@@H](O[C@H]2C[C@@](C)(OC)[C@@H](O)[C@H](C)O2)[C@H](C)[C@@H](O[C@@H]2O[C@H](C)C[C@H](N(C)C)[C@H]2O)[C@](C)(O)C[C@@H](C)CN(C)[C@H](C)[C@@H](O)[C@]1(C)O [Compound 43, 9a-aza-9a-methyl-9-deoxo-9a-homoerythromycin A, reference compound] |  |  |  | TC50 in E. coli (E. coli (DH5α)): 2300 nM
CCOC(=O)CC/C(C)=C/Cc1c(OC)c(C)c2c(c1OC(=O)CCC(=O)O[C@@H]1C(N(C)C)C[C@@H](C)O[C@H]1O[C@@H]1[C@@H](C)[C@H](O[C@H]3C[C@@](C)(OC)[C@@H](O)[C@H](C)O3)[C@@H](C)C(=O)O[C@H](CC)[C@@](C)(O)[C@H](O)[C@@H](C)N(C)C[C@H](C)C[C@@]1(C)O)C(=O)OC2 (stereo partly shown) [Compound 69] | 2.66 | 1.4 | 1.9 | 
CC[C@H]1OC(=O)[C@H](C)[C@@H](OC2C[C@@](C)(OC)[C@@H](O)[C@H](C)O2)[C@H](C)[C@@H](OC2O[C@H](C)C[C@H](N(C)C)[C@H]2O)[C@](C)(O)C[C@@H](C)/C(=N/OCc2cc(=O)oc3cc(OC)c(OC)cc23)[C@H](C)[C@@H](O)[C@]1(C)O (stereo partly shown) [Compound 3] |  |  |  | intracellular distribution ([1]; polymorphonuclear cells, fluorescent image (FIG. 3)): even distribution with some concentration near the nucleus
CC[C@H]1OC(=O)[C@H](C)[C@@H](O[C@H]2C[C@@](C)(OC)[C@@H](O)[C@H](C)O2)[C@H](C)[C@@H](O[C@@H]2O[C@H](C)C[C@@H](OC(=O)CC/C(C)=C/Cc3c(O)c4c(c(C)c3OC)COC4=O)[C@@H]2N2CCOCC2)[C@](C)(O)C[C@@H](C)CN(C)[C@H](C)[C@@H](O)[C@]1(C)O [Compound 80] | 1.41 | 0.4 | 3.53 | 
